From US20240301409A1, “Chemically Modified Small Activating RNA” (RACTIGEN THERAPEUTICS, priority 2021, published 2024)
Oligonucleotides are written 5' to 3', each unit as a sugar letter and its base; * is a phosphorothioate linkage, no mark a phosphodiester; rarer units and linkages stand in square brackets, end groups in braces. Plain capitals give the bases only. m = 2'-O-methyl; r = 2'-OH (RNA); f = 2'-fluoro

How the values were obtained:
p21 gene [1] = assay: p21 mRNA expression by RT-qPCR in Ku-7-LG cells; assay type: cell-based, human; details: 10 nM
Description: (§1) Ku-7-LG and T24 cells were transfected with the indicated saRNA at a final concentration of 10 nM for 3 days. After transfection, the RNA was extracted with the Qiagen RNeasy kit. After reverse transcription, the ABI 7500 fast real-time PCR system was used for qPCR amplification. The GAPDH gene was amplified as an internal reference. […] Dashed line indicates duplex Rag1-40 with no chemical modification in comparison, and the values above the line indicate stronger activity. The control was blank transfection without oligonucleotide. dsCon2 is transfected with a double-stranded scramble RNA. The value of the ordinate represents the mean±SD of 2 repeated treatments.
(§2) The control and dsCon2 were blank transfection and scramble dsRNA transfection, respectively. The values in the ordinate represent the mean±SD of 2 repeated treatments.
(§3) Human bladder cancer cells Ku-7-LG (ATCC), J82 (ATCC) and T24 (ATCC) were cultured in McCoy medium (Gibco) comprising 10% calf serum (Sigma-Aldrich) and 1% penicillin/Streptomycin (Gibco). Cells were cultured at 37° C. under 5% CO2. Ku-7-LG, J82 and T24 cells were plated into 12-well plates at 10×10^4 cells per well, transfected with the small RNA at a concentration of 10 nM (unless otherwise specified) for three days, using RNAiMax (Invitrogen, Carlsbad, CA) according to the manufacturer's instructions. Two replicate wells were set for each treatment.
(§4) After transfection, the medium was discarded and to each well 500 μl cell lysate was added and incubated at room temperature for 5 minutes. RNA was extracted with the Qiagen RNeasy kit, and after reverse transcription, qPCR analysis was performed on the ABI 7500 Fast Real-time PCR system (Applied Biosystems). Each sample was amplified in 3 replicate wells.
(§5) The PCR reaction conditions are: 95° C. for 30 seconds, 95° C. for 5 seconds, 60° C. for 30 seconds, and 40 cycles of amplification. The GAPDH gene was amplified as an internal reference at the same time. p21 was amplified with the p21F1/R1 primer pair, and the specific sequences of the amplification primers are shown in Table 1.
(§6) In order to calculate the expression value (Erel) of p21 (target gene) of a saRNA transfection sample relative to the control treatment, Formula 1 is used to input the Ct values of the target gene and the internal reference gene for calculation.
(§7) wherein, CtTm is the Ct value of the target gene from the control treatment sample; CtTs is the Ct value of the target gene from the saRNA treated sample; CtRm is the Ct value of the internal reference gene from the control treatment sample; and CtRs is the Ct value of the internal reference gene from the saRNA treated sample.
(§8) The main purpose of introducing chemical modifications to regulatory oligonucleotides of a gene is to improve their pharmaceutical properties, including enhancing in vivo stability and mitigating off-target effects (e.g., sequence-dependent targeting of unrelated genes, sequence-dependent or independent immune stimulation), while maintaining their gene regulatory capacity (gene knockdown or activation). To assess the effect of chemical modification on the RNAa activity of saRNA on the p21 gene, 10 nM unmodified (Rag1-40) and modified (Rag1-40-1 to Rag1-40-34) duplexes were transfected into Ku-7-LG and T24 cells, respectively. After 72 hours, the mRNA expression level of p21 was assessed by RT-qPCR. All duplexes induced p21 mRNA expression in all […] at least double that of the control.
(§9) In order to further evaluate the expression level of p21 mRNA after the different durations of treatment by the chemically modified saRNA duplexes, two saRNAs (RAG1-40-31 and RAG1-40-53) were randomly selected from the above chemically modified saRNA duplexes for detection. RAG1-40-31 and RAG1-40-53 were transfected into Ku-7-LG and T24 cells at a final concentration of 10 nM, for 1, 2, 3, 4, 7 and 9 days, respectively. Each treatment was set up in duplicate. […]

p21 gene [2] = assay: p21 mRNA expression by RT-qPCR in T24 cells; assay type: cell-based, human; details: 10 nM
Description: as §1, §2, §3, §4, §5, §6, §7, §8, §9

Ku-7-LG cells = assay: Cell cycle detection by flow cytometry in Ku-7-LG cells; assay type: cell-based, human; details: 48 hours
Description: RAG1-40-31 and RAG1-40-53 were transfected into Ku-7-LG cells at the final concentrations of 0.1, 1, 10 and 50 nM, and the transfection duration was 48 hours. Two replicate wells were used for each treatment. After transfection, the cell cycle was analyzed by flow cytometry, and the collected data were analyzed by MotFit software.
After transfection, the supernatant was discarded to collect cells. To each well 500 μL PBS was added for one wash and then discarded. To each well 100 μL trypsin was further added. 900 μL medium was added to stop digestion before transferring to a 1.5 mL centrifuge tube. All the cells were collected through centrifugation (400 rcf, 5 min) and counted (2×10^5 cells/200 μL PBS). Cold 70% absolute ethanol was added before incubation overnight at 4° C. After washing twice with PBS, 200 μL Krishan buffer was added before incubation at 4° C. for 1 hour. After washing twice with PBS, the supernatant was discarded and 200 μL PBS was added for cell re-suspension, then the cells were transferred to a 96-well plate and analyzed by flow cytometer. The collected data were analyzed with MotFit software.
In order to study the mechanism of cellular proliferation suppression, change in cell cycle was analyzed using flow cytometry in this example. Randomly selected saRNAs RAG1-40-31 and RAG1-40-53 were transfected into Ku-7-LG cells at final concentrations of 0.1, 1, 10 and 50 nM, respectively, for 48 hours. Each treatment was set in duplicate. Cell cycle was detected and analyzed as described in the general protocol above.

RNase A = target: T1, RNase A (Bos taurus, UniProt P61823); assay: saRNA stability analysis in the presence of RNase A (agarose gel); details: incubation 0 to 96 hours
T1 sequence (P61823 27-150): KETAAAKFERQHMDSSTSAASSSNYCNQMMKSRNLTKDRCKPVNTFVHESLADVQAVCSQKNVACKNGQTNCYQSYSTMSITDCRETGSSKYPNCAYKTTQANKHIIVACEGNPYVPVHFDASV

[3] = system: Rag1-40 target sequence in the 3′ UTR of firefly luciferase, COS-1 cells; assay: Analysis of off-target effects (pOff-Target dual luciferase reporter in COS-1 cells); details: lysed 48 hours after transfection, luciferase activity

RAG1-40-53: saRNA duplex: sense mCmCAACfUCAfUfUCfUCCAAG*mU*mC (SEQ ID NO 24); antisense fUAfCfUfUGGAGAAfUGAGfUfUGG*fC*fA (SEQ ID NO 25) (sense CCAACUCAUUCUCCAAGUC; antisense UACUUGGAGAAUGAGUUGGCA; 2'-F, 2'-OMe, phosphorothioate modifications; modified_base (1)..(19) (1,2,18,19)=2′-O-methyl(2′-OMe); modified_base (6)..(12) (6,9,10,12)=2′-fluoro; modified_base (17)..(19) (17,18,19)=phosphorothioate (PS) backbone modification; modified_base (1)..(21) (1,3,4,5,12,16,17,20,21)=2′-fluoro; modified_base (20)..(21) (20,21)=phosphorothioate (PS) backbone modification)
increase of expression level of p21 mRNA compared with the control group (p21 gene [1]; 1 day): 1.4 fold
increase of expression level of p21 mRNA compared with the control group (p21 gene [1]; 2 days): 13.0 fold
increase of expression level of p21 mRNA compared with the control group (p21 gene [1]; 3 days): 9.1 fold
increase of expression level of p21 mRNA compared with the control group (p21 gene [1]; 4 days): 4.5 fold
increase of expression level of p21 mRNA compared with the control group (p21 gene [1]; 7 days): 3.2 fold
increase of expression level of p21 mRNA compared with the control group (p21 gene [1]; 9 days): 4.1 fold
increase of expression level of p21 mRNA compared with the control group (p21 gene [2]; 1 day): 2.2 fold
increase of expression level of p21 mRNA compared with the control group (p21 gene [2]; 2 days): 3.5 fold
increase of expression level of p21 mRNA compared with the control group (p21 gene [2]; 3 days): 7.8 fold
increase of expression level of p21 mRNA compared with the control group (p21 gene [2]; 4 days): 4.5 fold
increase of expression level of p21 mRNA compared with the control group (p21 gene [2]; 7 days): 1.2 fold
increase of expression level of p21 mRNA compared with the control group (p21 gene [2]; 9 days): 1.1 fold
percentage of cells in DNA anaphase/mitosis (G2/M) (Ku-7-LG cells; 0.1 nM): 7%
percentage of cells in DNA replication phase (S phase) (Ku-7-LG cells; 0.1 nM): 36%
percentage of cells in prophase of DNA synthesis (G0/G1) (Ku-7-LG cells; 0.1 nM): 57%
percentage of cells in DNA anaphase/mitosis (G2/M) (Ku-7-LG cells; 1 nM): 10%
percentage of cells in DNA replication phase (S phase) (Ku-7-LG cells; 1 nM): 24%
percentage of cells in prophase of DNA synthesis (G0/G1) (Ku-7-LG cells; 1 nM): 66%
percentage of cells in DNA anaphase/mitosis (G2/M) (Ku-7-LG cells; 10 nM): 9%
percentage of cells in DNA replication phase (S phase) (Ku-7-LG cells; 10 nM): 12%
percentage of cells in prophase of DNA synthesis (G0/G1) (Ku-7-LG cells; 10 nM): 79%
percentage of cells in DNA anaphase/mitosis (G2/M) (Ku-7-LG cells; 50 nM): 8%
percentage of cells in DNA replication phase (S phase) (Ku-7-LG cells; 50 nM): 16%
percentage of cells in prophase of DNA synthesis (G0/G1) (Ku-7-LG cells; 50 nM): 76%

Rag1-40-1: saRNA duplex: sense mCmCAACUCAUUCUCCAAGmUmC (SEQ ID NO 5); antisense fUAfCfUfUGGAGAAfUGAGfUfUGGfCA (SEQ ID NO 6) (sense CCAACUCAUUCUCCAAGUC; antisense UACUUGGAGAAUGAGUUGGCA; 2'-OMe and 2'-F modifications; modified_base (1)..(19) (1,2,18,19)=2′-O-methyl(2′-OMe); modified_base (1)..(20) (1,3,4,5,12,16,17,20)=2′-fluoro)
degradation of duplex at 96 hours (RNase A): little or no signs of degradation
off-target effect compared to unmodified Rag1-40, in words [3]: completely inhibited

Rag1-40-14: saRNA duplex: sense fCfCAACUCAUUCUCCAAGfUfC (SEQ ID NO 14); antisense fU*A*fCfUfUGGAGAAfUGAGfUfUGG*fC*A (SEQ ID NO 11) (sense CCAACUCAUUCUCCAAGUC; antisense UACUUGGAGAAUGAGUUGGCA; 2'-F modifications, phosphorothioates; modified_base (1)..(19) (1,2,18,19)=2′-fluoro; modified_base (1)..(21) (1,2,3,19,20,21)=phosphorothioate (PS) backbone modification; modified_base (1)..(20) (1,3,4,5,12,16,17,20)=2′-fluoro)
degradation of duplex at 96 hours (RNase A): little or no signs of degradation
off-target effect compared to unmodified Rag1-40, in words [3]: mitigated or similar off-target effects

Rag1-40-19: saRNA duplex: sense mCmCAACUCAUUCUCCAAG*U*C (SEQ ID NO 15); antisense fUmAfCfUfUmGmGmAmGmAmAfUmGmAmGfUfUmGmGfCmA (SEQ ID NO 8) (sense mCmCrArArCrUrCrArUrUrCrUrCrCrArArG*rU*rC)
degradation of duplex at 96 hours (RNase A): little or no signs of degradation
off-target effect compared to unmodified Rag1-40, in words [3]: mitigated or similar off-target effects
